# Test results published in PubChem BioAssay AID1918949 (Molecular Pharmacology Branch, DTP, NCI, 2023).
# Test system: K24384-001-R-PDC complex spheroid viability
# Assay: Anticancer human tumor K24384-001-R-PDC patient-derived pancreatic adenocarcinoma cell line growth inhibition
# Conditions: for IC50: curve of first compound; for viability, T/C: stronger effect = lower value
# In short: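 Complex spheroids of tumor cells with HUVEC and human MSCs, exposed to iadademstat combined with other agents. Each agent tested in half-log steps from near clinical Cmax (else 10 microM top), DMSO ≤0.25%.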
# [1] = second compound 0.1 µM, first compound 0.0316 µM
# [2] = second compound 0.1 µM, first compound 0.1 µM
# [3] = second compound 0.1 µM, first compound 0.316 µM
# [4] = second compound 0.1 µM, first compound 1 µM
# [5] = second compound 0.1 µM, first compound 3.16 µM
# [6] = second compound 0.1 µM, first compound 10 µM
# [7] = second compound 0.316 µM, first compound 0.0316 µM
# [8] = second compound 0.316 µM, first compound 0.1 µM
# [9] = second compound 0.316 µM, first compound 0.316 µM
# [10] = second compound 0.316 µM, first compound 1 µM
# [11] = second compound 0.316 µM, first compound 3.16 µM
# [12] = second compound 0.316 µM, first compound 10 µM
# [13] = second compound 1 µM, first compound 0.0316 µM
# [14] = second compound 1 µM, first compound 0.1 µM
# [15] = second compound 1 µM, first compound 0.316 µM
# [16] = second compound 1 µM, first compound 1 µM
# [17] = second compound 1 µM, first compound 3.16 µM
# [18] = second compound 1 µM, first compound 10 µM
# [19] = second compound 3.16 µM, first compound 0.0316 µM
# [20] = second compound 3.16 µM, first compound 0.1 µM
# [21] = second compound 3.16 µM, first compound 0.316 µM
# [22] = second compound 3.16 µM, first compound 1 µM
# [23] = second compound 3.16 µM, first compound 3.16 µM
# [24] = second compound 3.16 µM, first compound 10 µM
# [25] = second compound 10 µM, first compound 0.0316 µM
# [26] = second compound 10 µM, first compound 0.1 µM
# [27] = second compound 10 µM, first compound 0.316 µM
# [28] = second compound 10 µM, first compound 1 µM
# [29] = second compound 10 µM, first compound 3.16 µM
# [30] = second compound 10 µM, first compound 10 µM
# [31] = second compound 0.1 µM, first compound 0.00316 µM
# [32] = second compound 0.1 µM, first compound 0.01 µM
# [33] = second compound 0.316 µM, first compound 0.00316 µM
# [34] = second compound 0.316 µM, first compound 0.01 µM
# [35] = second compound 1 µM, first compound 0.00316 µM
# [36] = second compound 1 µM, first compound 0.01 µM
# [37] = second compound 3.16 µM, first compound 0.00316 µM
# [38] = second compound 3.16 µM, first compound 0.01 µM
# [39] = second compound 10 µM, first compound 0.00316 µM
# [40] = second compound 10 µM, first compound 0.01 µM
# 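Note: spheroids exposed to agents for seven days before luminescence viability reading.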
# 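Throughout, for viability, T/C: 100% = DMSO vehicle control viability.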
SMILES,IC50 (second compound 0.1 µM),IC50 (second compound 0.316 µM),IC50 (second compound 1 µM),IC50 (second compound 3.16 µM),IC50 (second compound 10 µM),"viability, T/C [1]","viability, T/C [2]","viability, T/C [3]","viability, T/C [4]","viability, T/C [7]","viability, T/C [8]","viability, T/C [9]","viability, T/C [10]","viability, T/C [13]","viability, T/C [14]","viability, T/C [15]","viability, T/C [19]","viability, T/C [20]","viability, T/C [25]","viability, T/C [26]",other results
COc1ccc([C@@H](O)c2cc(-c3ncnc4cc(N5CCOCC5)ccc34)c(F)cc2Cl)nn1 + NC1CC1c1ccc(-c2cccc(O)c2)cc1,1330 nM,2000 nM,1490 nM,1440 nM,1450 nM,97%,95.6%,87.2%,55.9%,112%,102%,91.1%,73.2%,117%,103%,95.2%,105%,105%,124%,114%,"viability, T/C [5]: 29.6%; viability, T/C [6]: 17.8%; viability, T/C [11]: 34.3%; viability, T/C [12]: 15.1%; viability, T/C [16]: 61.3%; viability, T/C [17]: 28.1%; viability, T/C [18]: 15.9%; viability, T/C [21]: 79.7%; viability, T/C [22]: 62.7%; viability, T/C [23]: 28.6%; viability, T/C [24]: 15.1%; viability, T/C [27]: 96.6%; viability, T/C [28]: 57%; viability, T/C [29]: 32.2%; viability, T/C [30]: 14.9%"
CC(C)c1c(-c2ccccc2)nc2c(C#N)c[nH]n2c1=O + NC1CCC(NC2CC2c2ccccc2)CC1,> 10000 nM,> 10000 nM,> 10000 nM,> 10000 nM,> 10000 nM,78.2%,80.2%,77.7%,77.3%,78.3%,70.4%,85.8%,72.2%,72.5%,67.4%,96.3%,73%,81.5%,77.2%,74.7%,"viability, T/C [5]: 81.4%; viability, T/C [6]: 81%; viability, T/C [11]: 77.1%; viability, T/C [12]: 87.5%; viability, T/C [16]: 75.3%; viability, T/C [17]: 75%; viability, T/C [18]: 97.4%; viability, T/C [21]: 82.5%; viability, T/C [22]: 71%; viability, T/C [23]: 75%; viability, T/C [24]: 77.9%; viability, T/C [27]: 80.2%; viability, T/C [28]: 76.6%; viability, T/C [29]: 80.1%; viability, T/C [30]: 83.6%"
CC(C)CC(NC(=O)CNC(=O)c1cc(Cl)ccc1Cl)B1OC(=O)CC(CC(=O)O)(C(=O)O)O1 (stereo not given) + NC1CCC(NC2CC2c2ccccc2)CC1,7.55 nM,5.78 nM,6.08 nM,5.59 nM,5 nM,3.3%,0.72%,–,–,3.1%,0.77%,–,–,4.13%,0.7%,–,2.82%,0.68%,2.54%,0.55%,"viability, T/C (second compound 0.1 µM, first compound 0.000316 µM): 100%; viability, T/C (second compound 0.1 µM, first compound 0.001 µM): 90.2%; viability, T/C [31]: 82.7%; viability, T/C [32]: 40.4%; viability, T/C (second compound 0.316 µM, first compound 0.000316 µM): 97.4%; viability, T/C (second compound 0.316 µM, first compound 0.001 µM): 91.9%; viability, T/C [33]: 75.4%; viability, T/C [34]: 27.2%; viability, T/C (second compound 1 µM, first compound 0.000316 µM): 89.9%; viability, T/C (second compound 1 µM, first compound 0.001 µM): 87.7%; viability, T/C [35]: 75.1%; viability, T/C [36]: 30.9%; viability, T/C (second compound 3.16 µM, first compound 0.000316 µM): 92.1%; viability, T/C (second compound 3.16 µM, first compound 0.001 µM): 78.3%; viability, T/C [37]: 74.1%; viability, T/C [38]: 26.5%; viability, T/C (second compound 10 µM, first compound 0.000316 µM): 92.9%; viability, T/C (second compound 10 µM, first compound 0.001 µM): 75.7%; viability, T/C [39]: 69.8%; viability, T/C [40]: 22.8%"
Nc1ncn(C2CC(O)C(CO)O2)c(=O)n1 (stereo not given) + NC1CCC(NC2CC2c2ccccc2)CC1,> 1000 nM,> 1000 nM,> 1000 nM,> 1000 nM,> 1000 nM,80.4%,73.6%,79.5%,73.5%,87.4%,82.5%,76.2%,85.1%,82.6%,68.3%,78.6%,105%,76.6%,87.8%,63.2%,"viability, T/C [31]: 78.3%; viability, T/C [32]: 93.8%; viability, T/C [33]: 88%; viability, T/C [34]: 79.4%; viability, T/C [35]: 88.4%; viability, T/C [36]: 80.5%; viability, T/C [16]: 70.1%; viability, T/C [37]: 89.8%; viability, T/C [38]: 88%; viability, T/C [21]: 59.7%; viability, T/C [22]: 60.9%; viability, T/C [39]: 92.9%; viability, T/C [40]: 83.8%; viability, T/C [27]: 73.7%; viability, T/C [28]: 72.7%"
CC1COCCN1c1cc(C2(S(C)(=N)=O)CC2)nc(-c2ccnc3[nH]ccc23)n1 (stereo not given) + NC1CC1c1ccc(-c2cccc(O)c2)cc1,1550 nM,1380 nM,1180 nM,1320 nM,776 nM,89.4%,108%,95.3%,58.8%,85.8%,85.9%,72.3%,57.7%,79.5%,73.9%,76.5%,82.4%,77.4%,87.7%,81.5%,"viability, T/C [5]: 33.7%; viability, T/C [6]: 38.1%; viability, T/C [11]: 34%; viability, T/C [12]: 36.4%; viability, T/C [16]: 53%; viability, T/C [17]: 29.1%; viability, T/C [18]: 34.1%; viability, T/C [21]: 73.2%; viability, T/C [22]: 56.7%; viability, T/C [23]: 27.9%; viability, T/C [24]: 32%; viability, T/C [27]: 70%; viability, T/C [28]: 45.2%; viability, T/C [29]: 29.1%; viability, T/C [30]: 31.1%"
CC1(C)CCC(CN2CCN(c3ccc(C(=O)NS(=O)(=O)c4ccc(NCC5CCOCC5)c([N+](=O)[O-])c4)c(Oc4cnc5[nH]ccc5c4)c3)CC2)=C(c2ccc(Cl)cc2)C1 + NC1CCC(NC2CC2c2ccccc2)CC1,3080 nM,2740 nM,2280 nM,3110 nM,3730 nM,80.2%,95.5%,85%,89.8%,79.5%,90.2%,88.9%,94.5%,84%,86%,81.6%,87.3%,72.9%,73.9%,92.9%,"viability, T/C [5]: 49.1%; viability, T/C [6]: 0.77%; viability, T/C [11]: 44.6%; viability, T/C [12]: 0.44%; viability, T/C [16]: 81.6%; viability, T/C [17]: 37.6%; viability, T/C [18]: 0.69%; viability, T/C [21]: 77.3%; viability, T/C [22]: 92.2%; viability, T/C [23]: 49.6%; viability, T/C [24]: 0.87%; viability, T/C [27]: 77.8%; viability, T/C [28]: 76.9%; viability, T/C [29]: 58.4%; viability, T/C [30]: 0.69%"
